Consider 22 molecules from PubChem BioAssay AID256 (DTP/NCI, 2004).

In the test the test system is CD2F1 mice, L1210 leukemia ip, survival T/C. In words: NCI In Vivo Anticancer Drug Screen. Data for tumor model L1210 Leukemia (intraperitoneal) in CD2F1 (CDF1) mice. The settings on record: higher = longer survival. A digest of the protocol: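 Each value reflects a quotient of treated over vehicle control outcomes in mice with a transplanted tumor.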
Where [1] appears, read: endpoint: mean survival time, dose: 100.0 mg/kg/injection, schedule: Q01DX009 (ip), vehicle: saline with Tween-80.
The mark [2] stands for this setting: endpoint: mean survival time, dose: 400.0 mg/kg/injection, schedule: Q01DX009 (ip), vehicle: saline with Tween-80.
Setting [3] is: endpoint: mean survival time, dose: 100.0 mg/kg/injection, schedule: Q01DX001 (ip), vehicle: saline with Tween-80.
The mark [4] stands for this setting: endpoint: mean survival time, dose: 200.0 mg/kg/injection, schedule: Q01DX001 (ip), vehicle: saline with Tween-80.
Setting [5] is: endpoint: mean survival time, dose: 25.0 mg/kg/injection, schedule: Q04DX003 (ip), vehicle: saline with Tween-80.
Where [6] appears, read: endpoint: mean survival time, dose: 100.0 mg/kg/injection, schedule: Q04DX003 (ip), vehicle: saline with Tween-80.
The mark [7] stands for this setting: endpoint: mean survival time, dose: 200.0 mg/kg/injection, schedule: Q01DX009 (ip), vehicle: saline with Tween-80.
Where [8] appears, read: endpoint: mean survival time, dose: 200.0 mg/kg/injection, schedule: Q04DX003 (ip), vehicle: saline with Tween-80.
Setting [9] is: endpoint: mean survival time, dose: 400.0 mg/kg/injection, schedule: Q04DX003 (ip), vehicle: saline with Tween-80.
The mark [10] stands for this setting: endpoint: mean survival time, dose: 25.0 mg/kg/injection, schedule: Q01DX009 (ip), vehicle: saline with Tween-80.
[11] abbreviates: endpoint: mean survival time, dose: 400.0 mg/kg/injection, schedule: Q01DX001 (ip), vehicle: saline with Tween-80.
Setting [12] is: endpoint: mean survival time, dose: 100.0 mg/kg/injection, schedule: Q04DX002 (ip), vehicle: saline with Tween-80.

Values joined by “and” are separate entries in the source; they are usually repeats but may differ in a detail not shown here. Equal entries are not always repeated. Toxic doses and inconclusive results are not listed.

For the molecule `CCOC(=O)CN1C(=O)NC(c2ccccc2)(c2ccccc2)C1=O`, the T/C reads like this: under setting [1], 94 % of control; (endpoint: mean survival time, dose: 100.0 mg/kg/injection, schedule: Q04DX003 (ip), vehicle: acetone) 97 % of control; (endpoint: mean survival time, dose: 200.0 mg/kg/injection, schedule: Q04DX003 (ip), vehicle: acetone) 101 % of control; under setting [2], 94 % of control; (endpoint: mean survival time, dose: 400.0 mg/kg/injection, schedule: Q04DX003 (ip), vehicle: acetone) 103 % of control.

Regarding `CCc1cc(C(C)(C)C)c(O)c(C(C)(C)C)c1`, the T/C was 102 % of control (endpoint: mean survival time, dose: 25.0 mg/kg/injection, schedule: Q01DX009 (ip), vehicle: Klucel (hydroxypropylcellulose) (HPC)); 102 % of control (endpoint: mean survival time, dose: 50.0 mg/kg/injection, schedule: Q01DX009 (ip), vehicle: Klucel (hydroxypropylcellulose) (HPC)); 98 % of control (endpoint: mean survival time, dose: 100.0 mg/kg/injection, schedule: Q01DX009 (ip), vehicle: Klucel (hydroxypropylcellulose) (HPC)).

With `CC1CC(C)(C)NC(C)(C(C)CC(C)(C)C)O1` (configuration not stated), the T/C is, setting by setting: (endpoint: mean survival time, dose: 50.0 mg/kg/injection, schedule: Q04DX002 (ip), vehicle: saline) 108 % of control; under setting [3], 93 % of control; (endpoint: mean survival time, dose: 100.0 mg/kg/injection, schedule: Q04DX002 (ip), vehicle: saline) 104 % of control; under setting [4], 93 % of control; (endpoint: mean survival time, dose: 200.0 mg/kg/injection, schedule: Q04DX002 (ip), vehicle: saline) 93 % of control.

Take `Cc1ccccc1-[n+]1nc(-c2ccccc2)nn1-c1ccccc1`: the T/C was 104 % of control (endpoint: mean survival time, dose: 1.25 mg/kg/injection, schedule: Q01DX009 (ip), vehicle: saline sonified) and 98 % of control (endpoint: mean survival time, dose: 5.0 mg/kg/injection, schedule: Q04DX003 (ip), vehicle: saline with Tween-80).

As for `C=C(C)CSC#N`, the T/C is 97 % of control under setting [5]; 100 % of control (endpoint: mean survival time, dose: 50.0 mg/kg/injection, schedule: Q04DX003 (ip), vehicle: saline with Tween-80); 100 % of control and 107 % of control under setting [6].

Turning to `C[n+]1c2ccccc2c(Nc2ccc(NS(=O)(=O)CCCCN=C(N)N)cc2)c2ccc(N)cc21`, the T/C (endpoint: mean survival time, dose: 6.25 mg/kg/injection, schedule: Q01DX009 (ip), vehicle: water) is 314 % of control.

On to `COc1ccc(CC(=O)O)cc1OC`, for which the T/C by setting is: under setting [1], 94 % of control; under setting [7], 103 % of control; under setting [2], 89 % of control.

For `CSc1nc(N)c2cnn(C3OC(CO)C(O)C3O)c2n1` (configuration not stated), the T/C reads like this: (endpoint: median survival time, dose: 8.13 mg/kg/injection, schedule: Q01DX005 (ip), vehicle: saline with Tween-80) 100 % of control; (endpoint: median survival time, dose: 9.0 mg/kg/injection, schedule: Q01DX005 (ip), vehicle: saline) 107 % of control; (endpoint: median survival time, dose: 12.5 mg/kg/injection, schedule: Q01DX005 (ip), vehicle: saline with Tween-80) 102 % of control; (endpoint: median survival time, dose: 16.25 mg/kg/injection, schedule: Q01DX005 (ip), vehicle: saline with Tween-80) 97 % of control; (endpoint: median survival time, dose: 18.0 mg/kg/injection, schedule: Q01DX005 (ip), vehicle: saline) 100 % of control; (endpoint: median survival time, dose: 25.0 mg/kg/injection, schedule: Q01DX005 (ip), vehicle: saline with Tween-80) 100 % of control. Also, the T/C is 101 % of control (endpoint: median survival time, dose: 32.5 mg/kg/injection, schedule: Q01DX005 (ip), vehicle: saline with Tween-80); 103 % of control (endpoint: median survival time, dose: 36.0 mg/kg/injection, schedule: Q01DX005 (ip), vehicle: saline); 94 % of control (endpoint: median survival time, dose: 50.0 mg/kg/injection, schedule: Q01DX005 (ip), vehicle: saline with Tween-80); 100 % of control (endpoint: median survival time, dose: 65.0 mg/kg/injection, schedule: Q01DX005 (ip), vehicle: saline with Tween-80); 97 % of control (endpoint: median survival time, dose: 72.0 mg/kg/injection, schedule: Q01DX005 (ip), vehicle: saline); 93 % of control (endpoint: median survival time, dose: 100.0 mg/kg/injection, schedule: Q01DX005 (ip), vehicle: saline with Tween-80). For the same molecule, the T/C is 101 % of control (endpoint: median survival time, dose: 130.0 mg/kg/injection, schedule: Q01DX005 (ip), vehicle: saline with Tween-80) and 94 % of control (endpoint: median survival time, dose: 200.0 mg/kg/injection, schedule: Q01DX005 (ip), vehicle: saline with Tween-80).

For `Cc1c(O)ccc([N+](=O)[O-])c1O`, the T/C was 107 % of control (endpoint: mean survival time, dose: 12.5 mg/kg/injection, schedule: Q04DX003 (ip), vehicle: saline with Tween-80) and 102 % of control under setting [5].

`NC(=O)Cc1c[nH]c2cc(O)ccc12`: the T/C under setting [1] is 93 % of control; the T/C under setting [6] was 97 % of control; the T/C under setting [7] was 95 % of control; the T/C under setting [8] is 97 % of control; the T/C under setting [2] was 100 % of control; the T/C under setting [9] is 95 % of control.

`COC(=O)C1(C)CCCC2(C)C3CCC(C)(CCOC(C)=O)CC3C(OC(C)=O)CC12` (configuration not stated): under setting [3], the T/C is 90 % of control.

Regarding `CO[C@@]12[C@@H]3N[C@@H]3CN1C1=C(C(=O)C(NCCN)=C(C)C1=O)[C@@H]2COC(N)=O`, the T/C was 123 % of control and 110 % of control (endpoint: median survival time, dose: 0.75 mg/kg/injection, schedule: Q01DX001 (ip), vehicle: water); 111 % of control (endpoint: median survival time, dose: 1.5 mg/kg/injection, schedule: Q01DX001 (ip), vehicle: water); 94 % of control (endpoint: median survival time, dose: 6.0 mg/kg/injection, schedule: Q01DX001 (ip), vehicle: water).

As for `O=S(=O)(F)c1ccc(N=C=S)cc1`, the T/C by setting is: (endpoint: mean survival time, dose: 12.5 mg/kg/injection, schedule: Q01DX009 (ip), vehicle: saline with Tween-80) 107 % of control; under setting [10], 97 % of control; under setting [6], 94 % of control; under setting [8], 97 % of control; under setting [9], 100 % of control.

Consider `CC(CN1CCCCC1)C(=O)c1ccc(-c2ccccc2)cc1` (configuration not stated), for which the T/C was 97 % of control under setting [10]; 100 % of control (endpoint: mean survival time, dose: 50.0 mg/kg/injection, schedule: Q01DX009 (ip), vehicle: saline with Tween-80); 97 % of control under setting [1].

Regarding `CN(C(=O)Nc1ccccc1)c1ccccc1`, the T/C by setting is: (endpoint: mean survival time, dose: 50.0 mg/kg/injection, schedule: Q01DX009 (ip), vehicle: other) 104 % of control; (endpoint: mean survival time, dose: 100.0 mg/kg/injection, schedule: Q01DX009 (ip), vehicle: other) 97 % of control; (endpoint: mean survival time, dose: 200.0 mg/kg/injection, schedule: Q01DX009 (ip), vehicle: other) 97 % of control.

In the case of `Cn1c(=O)cc(C=Nc2ccc(S(N)(=O)=O)cc2)c2ccccc21`, the T/C reads like this: under setting [1], 90 % of control; under setting [7], 89 % of control; under setting [2], 89 % of control.

For the molecule `CC(C(=O)O)C1(O)CCCCC1` (configuration not stated), the T/C is 101 % of control (endpoint: mean survival time, dose: 5.0 mg/kg/injection, schedule: Q01DX009 (ip), vehicle: saline with Tween-80); 95 % of control (endpoint: mean survival time, dose: 10.0 mg/kg/injection, schedule: Q01DX009 (ip), vehicle: saline with Tween-80); 90 % of control (endpoint: mean survival time, dose: 20.0 mg/kg/injection, schedule: Q01DX009 (ip), vehicle: saline with Tween-80).

Turning to `NCC(O)O.NCC(O)O.NCC(O)O.NCC(O)O.[Mo].[Mo]`, the T/C is 93 % of control under setting [3], 89 % of control under setting [4] and 104 % of control under setting [11].

In the case of `N#CSc1ccc(Nc2ccc(SC#N)cc2)cc1`, the T/C was 113 % of control (endpoint: mean survival time, dose: 12.5 mg/kg/injection, schedule: Q04DX003 (ip), vehicle: Klucel (hydroxypropylcellulose) (HPC)); 109 % of control (endpoint: mean survival time, dose: 25.0 mg/kg/injection, schedule: Q04DX003 (ip), vehicle: Klucel (hydroxypropylcellulose) (HPC)); 107 % of control (endpoint: mean survival time, dose: 50.0 mg/kg/injection, schedule: Q04DX003 (ip), vehicle: Klucel (hydroxypropylcellulose) (HPC)).

In the case of `CCOC(=O)c1c(C)c2c(n1C)CC/C(=C\N1CCOCC1)C2=O`, the T/C by setting is: under setting [12], 93 % of control; (endpoint: mean survival time, dose: 200.0 mg/kg/injection, schedule: Q04DX002 (ip), vehicle: saline with Tween-80) 93 % of control; (endpoint: mean survival time, dose: 400.0 mg/kg/injection, schedule: Q04DX002 (ip), vehicle: saline with Tween-80) 96 % of control.

In the case of `COC(=O)C1(C)CCCC2(C)C1CCC13C(O)C(C(C)C)C1CC23` (configuration not stated), the T/C is 86 % of control under setting [3], 91 % of control under setting [4] and 97 % of control under setting [11].

Consider `CC1=C(/C=C/C(C)(O)CC2=NC(C)(C)CO2)C(C)(C)CCC1` (configuration not stated), for which the T/C is 101 % of control (endpoint: mean survival time, dose: 25.0 mg/kg/injection, schedule: Q04DX002 (ip), vehicle: saline with Tween-80); 93 % of control (endpoint: mean survival time, dose: 50.0 mg/kg/injection, schedule: Q04DX002 (ip), vehicle: saline with Tween-80); 93 % of control under setting [12]; 91 % of control under setting [6]; 86 % of control under setting [9].
